A word on the IC50: it is the concentration needed to halve the response being measured. Higher therefore signals lower potency.

From PubChem BioAssay AID762 (NMMLSC, 2007) come the findings set out here.

The experiment concerns the target fMet-Leu-Phe receptor (Homo sapiens) (UniProt P21462). In words: human FPR1 ligand displacement potency – cell-based, flow cytometry, IC50, selectivity assay for FPRL1 ligand SAR project, dose response (AID 762). To be noted: FPR-expressing cells, fluorescent ligand binding competition, IC50 of ligand binding inhibition. A general note: Flow cytometry measures light scatter and fluorescence of single cells or particles in a stream.

Sequence of fMet-Leu-Phe receptor (Homo sapiens) (P21462 whole entry, looked up): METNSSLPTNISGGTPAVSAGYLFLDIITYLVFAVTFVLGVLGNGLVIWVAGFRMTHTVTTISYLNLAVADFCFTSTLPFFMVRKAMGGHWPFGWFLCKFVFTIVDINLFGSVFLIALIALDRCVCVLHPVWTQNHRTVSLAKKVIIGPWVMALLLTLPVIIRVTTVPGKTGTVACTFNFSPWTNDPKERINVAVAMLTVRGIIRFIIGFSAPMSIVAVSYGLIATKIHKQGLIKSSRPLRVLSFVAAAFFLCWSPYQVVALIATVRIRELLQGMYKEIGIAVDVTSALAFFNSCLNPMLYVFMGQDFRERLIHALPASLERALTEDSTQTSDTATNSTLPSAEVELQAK

Molecule `COc1ccc(-c2cn3cccnc3n2)cc1NC(=O)C1CCCC1` registered an IC50 above 66.1 µM.

For `COc1ccc(-c2cn3cccnc3n2)cc1NC(=O)C(C)C`, the half-inhibitory concentration (IC50) is above 71.6 µM.

In the case of `COc1ccc(-c2cc(C(F)(F)F)nc(N3CCN(C(c4ccccc4)c4ccccc4)CC3)n2)cc1OC`, the IC50 is above 41.6 µM.

Regarding `COc1ccc(CC(=O)Nc2cc(-c3cn4cccnc4n3)ccc2OC)cc1`, the concentration for half-maximal inhibition (IC50) was above 57.2 µM.

For `COc1ccc(-c2cn3cccnc3n2)cc1NC(=O)C1CC1`, the 50% inhibitory concentration (IC50) is above 72.1 µM.

For `CCC(=O)Nc1cc(-c2cn3cccnc3n2)ccc1OC`, the 50% inhibitory concentration (IC50) was above 75 µM.

`O=C(N1CCN(c2nc(-c3ccccc3)c3ccccc3n2)CC1)C(F)(F)F`: the IC50 was above 57.5 µM.

In turn, `CCOC(=O)N1CCN(c2nc(-c3ccc(OC)c(OC)c3)cc(C(F)(F)F)n2)CC1` gave an IC50 above 50.5 µM.

`COc1ccc(-c2cc(C(F)(F)F)nc(N3CCN(c4ccccc4)CC3)n2)cc1OC` came in with a 50% inhibitory concentration (IC50) above 50 µM.

On to `COc1ccc(-c2cc(C(F)(F)F)nc(N3CCN(Cc4ccccc4)CC3)n2)cc1OC`, for which the concentration for half-maximal inhibition (IC50) is above 48.5 µM.
